Measured values: patent US20120245120A1, “ZINC SUCROSE OCTASULFATES, THEIR PREPARATION, AND PHARMACEUTICAL AND COSMETIC USES THEREOF” (PIERRE FABRE DERMO-COSMETIQUE, priority 2009, published 2012)

System: keratinocyte cell lines HaCAT
Assay: In vitro cell migration assay (Oris Cell Migration Assay kit)
Assay type: cell-based, human
Design: Average OD: scale not given here
Settings: for % activity/TGFβ / % activity/negative control / Average OD: HaCaT migration
Method: The purpose of this study was to assess the effect of zinc sucrose octasulfate on cell migration of keratinocyte cell lines HaCAT, using an Oris Cell Migration Assay Kit (Platypus Technologies). This study was carried out in comparison with potassium sucrose octasulfate, and sodium sucrose octasulfate.
Spontaneously immortalized human keratinocyte cell line HaCaT, frequently referred to in literature as a standard model.
The protocol used for the cell migration study is based on the use of a 96-well Oris Cell Migration Assay kit (Platypus Technologies-TEBU), providing miniaturization and quantification of this cell process.
The principle of this assay is to investigate the cell migration towards the centre of the well of a 96-well plate. A stopper is placed in some wells, in order to create a detection zone of 2 mm in diameter. Then the stoppers are removed after the cells have well adhered to the surface around them, thus allowing the cells to migrate towards the detection zone. The plates without the stoppers and with the active substances are incubated at 37° C. for 24 hours in DMEM 0% SVF. Following this, the amount of cells located in the zone where the stopper was, is analyzed, in order to assess cell migration. A mask restricts visualization and reading to cells located in this zone only. For each condition, the average for 4 to 8 wells is calculated.
The results are expressed as OD (proportional to the amount of migrated cells).
Percent activity with regard to the negative control is calculated as: […]
Percent activity with regard to TGFβ is calculated as: […]

[1] = Experiment 1, 1 μM, 24 hours at 37° C., DMEM 0% SVF, OD proportional to amount of migrated cells
[2] = Experiment 2, 1 μM, 24 hours at 37° C., DMEM 0% SVF, OD proportional to amount of migrated cells
[3] = summary statement, no concentration given
[4] = Experiment 1, 5 ng/mL, 24 hours, positive control
[5] = Experiment 2, 5 ng/mL, 24 hours, positive control

| Compound | % activity/TGFβ (Experiment 1, 1 μM, 24 hours) [%] | % activity/negative control (Experiment 1, 1 μM, 24 hours) [%] | Average OD [1] | % activity/TGFβ (Experiment 2, 1 μM, 24 hours) [%] | % activity/negative control (Experiment 2, 1 μM, 24 hours) [%] | Average OD [2] | induction of keratinocyte migration (in words) (at the concentrations tested) | induction of keratinocyte migration (in words) [3] | induction of keratinocyte migration (in words) (5 ng/mL, both experiments, positive control) | % activity/negative control [4] [%] | Average OD [4] | % activity/negative control [5] [%] | Average OD [5] | activity compared with the positive control TGFβ (in words) (1 μM vs TGFβ 5 ng/mL) | induction of keratinocyte migration (in words) (1 μM, both experiments) |
| --- | --- | --- | --- | --- | --- | --- | --- | --- | --- | --- | --- | --- | --- | --- | --- |
| O=S(=O)([O-])OC[C@H]1O[C@@](COS(=O)(=O)[O-])(O[C@H]2O[C@H](COS(=O)(=O)[O-])[C@@H](OS(=O)(=O)[O-])[C@H](OS(=O)(=O)[O-])[C@H]2OS(=O)(=O)[O-])[C@@H](OS(=O)(=O)[O-])[C@@H]1OS(=O)(=O)[O-].[K+].[K+].[K+].[K+].[K+].[K+].[K+].[K+] [SOS-K, Potassium sucrose octasulfate] | 6.9 | 113.5 | 99.5 | 42.2 | 135.3 | 321.3 | do not induce keratinocyte migration | do not induce cell migration | – | – | – | – | – | – | – |
| O=S(=O)([O-])OC[C@H]1O[C@@](COS(=O)(=O)[O-])(O[C@H]2O[C@H](COS(=O)(=O)[O-])[C@@H](OS(=O)(=O)[O-])[C@H](OS(=O)(=O)[O-])[C@H]2OS(=O)(=O)[O-])[C@@H](OS(=O)(=O)[O-])[C@@H]1OS(=O)(=O)[O-].[Na+].[Na+].[Na+].[Na+].[Na+].[Na+].[Na+].[Na+] [SOS-Na, Sodium sucrose octasulfate] | −34.6 | 32.6 | 28.6 | −47.1 | 59.9 | 142.3 | do not induce keratinocyte migration | do not induce cell migration | – | – | – | – | – | – | – |
| TGFβ: Positive control: TGFβ1, polypeptide growth factor | – | – | – | – | – | – | – | – | induces keratinocyte migration reproducibly | 294.9 | 258.6 | 183.8 | 436.3 | – | – |
| zinc sucrose octasulfate [SOS-Zn] | 128.3 | 350.0 | 306.9 | 90.7 | 176.0 | 417.8 | – | induces keratinocyte migration | – | – | – | – | – | as active as the positive control TGFβ | induces cell migration reproducibly |
